Measurements as given in PubChem BioAssay AID602120 (Johns Hopkins Ion Channel Center, 2011).

Target: Potassium voltage-gated channel subfamily KQT member 1 (Homo sapiens) (UniProt P51787)
Assay: PubChem AID 602120
Details: KCNQ1-CHO cells, manual whole-cell patch clamp current; at 0.3 µM; active compounds read high

Potassium voltage-gated channel subfamily KQT member 1 (Homo sapiens), sequence (P51787 whole entry, looked up): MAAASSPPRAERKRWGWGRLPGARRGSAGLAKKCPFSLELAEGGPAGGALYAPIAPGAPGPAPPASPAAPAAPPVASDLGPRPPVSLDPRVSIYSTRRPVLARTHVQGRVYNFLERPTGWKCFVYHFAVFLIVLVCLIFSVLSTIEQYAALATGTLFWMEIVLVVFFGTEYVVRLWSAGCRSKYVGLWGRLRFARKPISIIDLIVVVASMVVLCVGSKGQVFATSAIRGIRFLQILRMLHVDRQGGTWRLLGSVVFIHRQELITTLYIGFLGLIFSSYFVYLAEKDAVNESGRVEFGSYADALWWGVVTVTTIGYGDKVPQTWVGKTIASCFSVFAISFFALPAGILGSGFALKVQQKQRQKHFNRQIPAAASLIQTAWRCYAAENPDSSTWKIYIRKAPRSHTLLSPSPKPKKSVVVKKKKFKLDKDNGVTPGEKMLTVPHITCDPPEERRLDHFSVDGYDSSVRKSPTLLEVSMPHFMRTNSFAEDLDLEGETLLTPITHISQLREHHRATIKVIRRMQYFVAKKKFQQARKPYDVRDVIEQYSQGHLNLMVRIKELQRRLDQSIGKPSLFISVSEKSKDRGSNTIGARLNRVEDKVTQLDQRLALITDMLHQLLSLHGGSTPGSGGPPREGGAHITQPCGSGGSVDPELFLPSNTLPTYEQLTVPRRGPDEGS

- fold activation: 46.9
Compound: COc1ccc(-c2csc(NC(=O)[C@H]3CCCCN3S(=O)(=O)c3ccc(C)cc3)n2)cc1
